Legend:
[1] = tested on: Aβ formation in H4 APP751 SWE clone 8.20 cells (H4 neuroglioma cell line stably expressing the Swedish mutant of APP751); test: Inhibition of Aβ formation in cultured cells; assay type: cell-based; details: for IC50: H4 APP751 SWE clone 8.20 cells, 19 hours incubation, Aβ40 or Aβ42 not specified
Description: Compounds were assayed for Aβ40 or Aβ42 inhibition in cells using H4 APP751 SWE clone 8.20, developed at Bristol-Myers Squibb, an H4 neuroglioma cell line stably expressing the Swedish mutant of APP751. Cells were maintained in log phase through twice weekly passage at a 1:20 dilution. For IC50 determinations, 30 μL cells (1.5×10^4 cells/well) in DMEM media containing 0.0125% BSA (Sigma A8412) were plated directly into 384-well compound plates (Costar 3709) containing 0.1 μL serially diluted compound in DMSO. Following incubation for 19 hours in 5% CO2 at 37° C., plates were briefly centrifuged (1000 rpm, 5 min). A 10 μL aliquot from each well was transferred to a second assay plate (Costar 3709) for Aβ40 measurements. Antibody cocktails were freshly prepared by dilution into 40 mM Tris-HCl (pH 7.4) with 0.2% BSA and added to assay plates. For Aβ42 measurements, antibodies specific for the Aβ42 neoepitope (565, developed at Bristol-Myers Squibb; conjugated to the Wallac reagent (Perkin Elmer)) and the N-terminal sequence of Aβ peptide (26D6, developed at SIBIA/Bristol-Myers Squibb; conjugated to APC (Perkin Elmer)) were mixed and 20 […] of the mixture was added to each well of the incubated cell plate yielding a final concentration of 0.8 ng/well 565 and 75 ng/well 26D6. For the Aβ40 measurements, antibodies specific for the Aβ40 neoepitope (TSD, developed at Bristol-Myers Squibb; conjugated to the Wallac reagent (Perkin Elmer)) and 26D6 as described above were mixed and 20 μL of the mixture was added to the 10 μL aliquots which had been removed previously from the cell plate yielding a final concentration of 1.6 ng/well TSD and 17.5 ng/well 26D6. Assay plates containing antibodies were sealed with aluminum foil and incubated overnight at 4° C. Signal was determined using a Viewlux counter (Perkin Elmer) and IC50 values determined using curve fitting in CurveMaster (Excel Fit based).

brain Aβ40 = test: Acute rat study, brain Abeta40 assay (252-TSD ELISA); assay type: in vivo; details: female Sprague-Dawley rats, single dose 10 mg/kg, oral gavage
Description: (§1) Aβ species from animals were measured using sandwich ELISA assays. A brief discussion of these assays is included here since the details of the epitopes for the individual antibodies determines the Aβ species that are detected. Mouse and rat Aβ share a common Aβ sequence that differs from human Aβ. As a result of these sequence differences, antibodies that recognize the N-terminal region of human Aβ, such as 26D6, bind weakly to rodent Aβ. Likewise, antibodies that bind tightly to rodent Aβ, such as 252, bind weakly to human Aβ. Two assays were developed for measuring rodent Aβ40: 252-TSD and 4G8-TSD. The TSD-4G8 assay can measure not only Aβ40, but other BACE-γ-secretase cleavage products (Aβ11-40) and α-secretase-γ-secretase cleavage products (P3).
(§2) Dosing solutions were made once at the start of the study. Heating at 56° C. and sonication were used to solubilize compound in the dosing solution. All procedures were done in concordance with ACUC guidelines. Terminal blood samples were obtained by cardiac puncture after CO2 euthanasia and collected in EDTA tubes. Plasma was obtained after centrifugation. […]
Rat brain (half a hemisphere) was homogenized using a polytron at 4 mL/g in PBS, pH 7.8, 2% CHAPS, complete protease inhibitors (Roche). […] The bound 252-HRP antibody was detected using Pierce Supersignal Pico Chemiluminescent substrate for 10 minutes and quantified a Packard TopCount. […]

plasma Aβ40 = test: Acute rat study, plasma Abeta40 assay (4G8-TSD ELISA); assay type: in vivo; details: female Sprague-Dawley rats, single dose 10 mg/kg, oral gavage
Description: as §1, §2
Plates were coated with TSD antibody and washed as for the brain Aβ40 assay. […] Samples were detected using 4G8-biotin (Signet) diluted 1:8000 in PBS, 0.05% Tween, 0.1% BSA for 1 hour. […] Detection and quantification were as for brain Aβ40 assays. […]

Row | SMILES | IC50 [1] [nM] | further results
1 | NC(=O)[C@@H](CCC(F)(F)F)N(Cc1ccc(Br)c(F)c1)S(=O)(=O)c1ccc(Cl)s1 [Example 12, (R)-2-(N-(4-bromo-3-fluorobenzyl)-5-chlorothiophene-2-sulfonamido)-5,5,5-trifluoropentanamide] | 2.98 | 
2 | NC(=O)[C@@H](CC1CC1)N(Cc1cc(F)c(Br)cc1F)S(=O)(=O)c1ccc(Cl)s1 [Example 4, (R)-2-(N-(4-bromo-2,5-difluorobenzyl)-5-chlorothiophene-2-sulfonamido)-3-cyclopropylpropanamide] | 0.82 | 
3 | NC(=O)[C@@H](CC1CC1)N(Cc1ccc(Br)cc1)S(=O)(=O)c1ccc(Cl)s1 [Example 1, (R)-2-(N-(4-bromobenzyl)-5-chlorothiophene-2-sulfonamido)-3-cyclopropylpropanamide] | 1.01 | 
4 | NC(=O)[C@@H](CCC(F)(F)F)N(Cc1ccc(Br)cc1)S(=O)(=O)c1ccc(Cl)s1 [Example 10, (R)-2-(N-(4-bromobenzyl)-5-chlorothiophene-2-sulfonamido)-5,5,5-trifluoropentanamnide] | 2.54 | 
5 | NC(=O)[C@@H](CCC(F)(F)F)N(Cc1ccc(-c2ncon2)cc1F)S(=O)(=O)c1ccc(Cl)s1 [Example 7, (R)-2-(5-chloro-N-(2-fluoro-4-(1,2,4-oxadiazol-3-yl)benzyl)thiophene-2-sulfonamido)-5,5,5-trifluoropentanamide] | 0.29 | brain Aβ40, level as % of vehicle control (brain Aβ40): 41 % of vehicle control; plasma Aβ40, level as % of vehicle control (plasma Aβ40): 47 % of vehicle control; Aβ40 versus Aβ42 inhibition in cultured cells ([1]; cultured cells): similarly inhibited
6 | NC(=O)[C@@H](CC1CC1)N(Cc1ccc(Br)c(F)c1)S(=O)(=O)c1ccc(Cl)s1 [Example 3, (R)-2-(N-(4-bromo-3-fluorobenzyl)-5-chlorothiophene-2-sulfonamido)-3-cyclopropylpropanamide] | 0.76 | 
7 | NC(=O)[C@@H](CC1CC1)N(Cc1ccc(-c2ncon2)cc1)S(=O)(=O)c1ccc(Cl)s1 [Example 5, (R)-2-(N-(4-(1,2,4-oxadiazol-3-yl)benzyl)-5-chlorothiophene-2-sulfonamido)-3-cyclopropylpropanamide] | 0.51 | 
8 | NC(=O)[C@@H](CCC(F)(F)F)N(Cc1ccc(-c2ncco2)cc1F)S(=O)(=O)c1ccc(Cl)s1 [Example 9, (R)-2-(5-chloro-N-(2-fluoro-4-(oxazol-2-yl)benzyl)thiophene-2-sulfonamido)-5,5,5-trifluoropentanamide] | 0.61 | 
9 | NC(=O)[C@@H](CCC(F)(F)F)N(Cc1ccc(Br)cc1F)S(=O)(=O)c1ccc(Cl)s1 [Example 11, (R)-2-(N-(4-bromo-2-fluorobenzyl)-5-chlorothiophene-2-sulfonamido)-5,5,5-trifluoropentanamide] | 1.06 | 
10 | NC(=O)[C@@H](CC1CC1)N(Cc1cc(F)c(Cl)cc1F)S(=O)(=O)c1ccc(Cl)s1 [Example 6, (R)-2-(5-chloro-N-(4-chloro-2,5-difluorobenzyl)thiaphene-2-sulfonamido)-3-cyclopropylpropanamide] | 1.49 | 
11 | NC(=O)[C@@H](CC1CC1)N(Cc1ccc(Br)cc1F)S(=O)(=O)c1ccc(Cl)s1 [Example 2, (R)-2-(N-(4-bromo-2-fluorobenzyl)-5-chlorothiophene-2-sulfonamido)-3-cyclopropylpropanamide] | 0.52 | 

Source: US20110071199A1, “Thiophenyl Sulfonamides for the Treatment of Alzheimer's Disease” (Bristol-Myers Squibb Company, priority 2009, published 2011)
